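How tested: cells in 96-well plates exposed to compound for 48 hours at five concentrations. GI50 marks 50% less growth. TGI: total growth inhibition.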
Key:
Assay in all cases: inhibition of tumour cell growth, NCI panel, 48 h
786-0 renal = tested on: 786-0 renal
A498 renal = tested on: A498 renal
A549 NSCLC = tested on: A549 NSCLC
ACHN renal = tested on: ACHN renal
BT-549 breast = tested on: BT-549 breast
CAKI-1 renal = tested on: CAKI-1 renal
CCRF-CEM leukemia = tested on: CCRF-CEM leukemia
COLO 205 colon = tested on: COLO 205 colon
DU-145 prostate = tested on: DU-145 prostate
EKVX NSCLC = tested on: EKVX NSCLC
HCC-2998 colon = tested on: HCC-2998 colon
HCT-116 colon = tested on: HCT-116 colon
HCT-15 colon = tested on: HCT-15 colon
HL-60(TB) leukemia = tested on: HL-60(TB) leukemia
HOP-62 NSCLC = tested on: HOP-62 NSCLC
HOP-92 NSCLC = tested on: HOP-92 NSCLC
HS 578T breast = tested on: HS 578T breast
HT29 colon = tested on: HT29 colon
IGROV1 ovarian = tested on: IGROV1 ovarian
K-562 leukemia = tested on: K-562 leukemia
KM12 colon = tested on: KM12 colon
LOX IMVI melanoma = tested on: LOX IMVI melanoma
M14 melanoma = tested on: M14 melanoma
MCF7 breast = tested on: MCF7 breast
MDA-MB-231 breast = tested on: MDA-MB-231 breast
MDA-MB-435 = tested on: MDA-MB-435
MOLT-4 leukemia = tested on: MOLT-4 leukemia
NCI-H226 lung = tested on: NCI-H226 lung
NCI-H23 lung = tested on: NCI-H23 lung
NCI-H460 lung = tested on: NCI-H460 lung
NCI-H522 lung = tested on: NCI-H522 lung
NCI/ADR-RES ovarian = tested on: NCI/ADR-RES ovarian
OVCAR-3 ovarian = tested on: OVCAR-3 ovarian
OVCAR-4 ovarian = tested on: OVCAR-4 ovarian
OVCAR-5 ovarian = tested on: OVCAR-5 ovarian
OVCAR-8 ovarian = tested on: OVCAR-8 ovarian
PC-3 prostate = tested on: PC-3 prostate
RPMI-8226 leukemia = tested on: RPMI-8226 leukemia
RXF 393 renal = tested on: RXF 393 renal
SF-268 CNS = tested on: SF-268 CNS
SF-295 CNS = tested on: SF-295 CNS
SF-539 CNS = tested on: SF-539 CNS
SK-MEL-2 melanoma = tested on: SK-MEL-2 melanoma
SK-MEL-28 melanoma = tested on: SK-MEL-28 melanoma
SK-MEL-5 melanoma = tested on: SK-MEL-5 melanoma
SK-OV-3 ovarian = tested on: SK-OV-3 ovarian
SN12C renal = tested on: SN12C renal
SNB-19 CNS = tested on: SNB-19 CNS
SNB-75 CNS = tested on: SNB-75 CNS
SR leukemia = tested on: SR leukemia
SW-620 colon = tested on: SW-620 colon
T-47D breast = tested on: T-47D breast
TK-10 renal = tested on: TK-10 renal
U251 CNS = tested on: U251 CNS
UACC-257 melanoma = tested on: UACC-257 melanoma
UACC-62 melanoma = tested on: UACC-62 melanoma
UO-31 renal = tested on: UO-31 renal

`CCOC(=O)/C(=C/c1ccc([N+](=O)[O-])cc1)C(=O)c1ccccc1` showed a GI50 (786-0 renal) of 1.82 µM, a TGI (786-0 renal) of 3.45 µM and a GI50 (A498 renal) of 2.33 µM. For the same molecule, the TGI (A498 renal) was 5.37 µM, the GI50 (A549 NSCLC) was 6.28 µM and the TGI (A549 NSCLC) was 20.6 µM. For the same molecule, the GI50 (ACHN renal) was 2.03 µM, the TGI (ACHN renal) was 4.35 µM and the GI50 (BT-549 breast) was 2.04 µM. For the same molecule, the TGI (BT-549 breast) was 4.37 µM, the GI50 (CAKI-1 renal) was 2.56 µM and the TGI (CAKI-1 renal) was 7.13 µM. The GI50 (CCRF-CEM leukemia) was 3.03 µM, the TGI (CCRF-CEM leukemia) was 9.11 µM and the GI50 (COLO 205 colon) was 1.95 µM. For the same molecule, the TGI (COLO 205 colon) was 3.89 µM, the GI50 (DU-145 prostate) was 2.08 µM and the TGI (DU-145 prostate) was 4.27 µM. The GI50 (EKVX NSCLC) was 4.88 µM, the TGI (EKVX NSCLC) was 17.4 µM and the GI50 (HCC-2998 colon) was 1.87 µM. It also gave a TGI (HCC-2998 colon) of 3.43 µM, a GI50 (HCT-116 colon) of 2.33 µM and a TGI (HCT-116 colon) of 5.3 µM. It also gave a GI50 (HCT-15 colon) of 1.99 µM, a TGI (HCT-15 colon) of 4.51 µM and a GI50 (HL-60(TB) leukemia) of 2.34 µM. The TGI (HL-60(TB) leukemia) was 5.87 µM, the GI50 (HOP-62 NSCLC) was 2.28 µM and the TGI (HOP-62 NSCLC) was 6.07 µM. For the same molecule, the GI50 (HOP-92 NSCLC) was 2.01 µM, the TGI (HOP-92 NSCLC) was 4.45 µM and the GI50 (HS 578T breast) was 3.44 µM. The TGI (HS 578T breast) was 12.8 µM, the GI50 (HT29 colon) was 2.05 µM and the TGI (HT29 colon) was 3.83 µM. For the same molecule, the GI50 (IGROV1 ovarian) was 2.53 µM, the TGI (IGROV1 ovarian) was 7.4 µM and the GI50 (K-562 leukemia) was 3.5 µM. It also gave a TGI (K-562 leukemia) of 28.7 µM, a GI50 (KM12 colon) of 2.16 µM and a TGI (KM12 colon) of 4.65 µM. The GI50 (LOX IMVI melanoma) was 1.77 µM, the TGI (LOX IMVI melanoma) was 3.38 µM and the GI50 (M14 melanoma) was 2.11 µM. It also gave a TGI (M14 melanoma) of 5.01 µM, a GI50 (MCF7 breast) of 2.32 µM and a TGI (MCF7 breast) of 8.94 µM. For the same molecule, the GI50 (MDA-MB-231 breast) was 2.34 µM, the TGI (MDA-MB-231 breast) was 5.24 µM and the GI50 (MDA-MB-435) was 2.23 µM. It also gave a TGI (MDA-MB-435) of 5.37 µM, a GI50 (MOLT-4 leukemia) of 3.01 µM and a TGI (MOLT-4 leukemia) of 9.38 µM. For the same molecule, the GI50 (NCI-H226 lung) was 2.57 µM, the TGI (NCI-H226 lung) was 6.45 µM and the GI50 (NCI-H23 lung) was 2.25 µM. For the same molecule, the TGI (NCI-H23 lung) was 5.56 µM, the GI50 (NCI-H460 lung) was 2.69 µM and the TGI (NCI-H460 lung) was 7.15 µM. It also gave a GI50 (NCI-H522 lung) of 1.7 µM, a TGI (NCI-H522 lung) of 3.51 µM and a GI50 (NCI/ADR-RES ovarian) of 3.43 µM. For the same molecule, the TGI (NCI/ADR-RES ovarian) was 19.8 µM, the GI50 (OVCAR-3 ovarian) was 2.56 µM and the TGI (OVCAR-3 ovarian) was 5.96 µM. The GI50 (OVCAR-4 ovarian) was 3.44 µM, the TGI (OVCAR-4 ovarian) was 12.9 µM and the GI50 (OVCAR-5 ovarian) was 2.55 µM. For the same molecule, the TGI (OVCAR-5 ovarian) was 6.93 µM, the GI50 (OVCAR-8 ovarian) was 3.73 µM and the TGI (OVCAR-8 ovarian) was 12 µM. The GI50 (PC-3 prostate) was 2.46 µM, the TGI (PC-3 prostate) was 6.11 µM and the GI50 (RPMI-8226 leukemia) was 2.34 µM. For the same molecule, the TGI (RPMI-8226 leukemia) was 6.07 µM, the GI50 (RXF 393 renal) was 2 µM and the TGI (RXF 393 renal) was 3.67 µM. It also gave a GI50 (SF-268 CNS) of 2.83 µM, a TGI (SF-268 CNS) of 10.7 µM and a GI50 (SF-295 CNS) of 2.78 µM. It also gave a TGI (SF-295 CNS) of 8.5 µM, a GI50 (SF-539 CNS) of 1.82 µM and a TGI (SF-539 CNS) of 3.58 µM. The GI50 (SK-MEL-2 melanoma) was 2.24 µM, the TGI (SK-MEL-2 melanoma) was 5.15 µM and the GI50 (SK-MEL-28 melanoma) was 2.1 µM. The TGI (SK-MEL-28 melanoma) was 4.73 µM, the GI50 (SK-MEL-5 melanoma) was 1.94 µM and the TGI (SK-MEL-5 melanoma) was 3.62 µM. The GI50 (SK-OV-3 ovarian) was 11.5 µM, the TGI (SK-OV-3 ovarian) was 23.6 µM and the GI50 (SN12C renal) was 1.76 µM. It also gave a TGI (SN12C renal) of 3.76 µM, a GI50 (SNB-19 CNS) of 2.4 µM and a TGI (SNB-19 CNS) of 5.81 µM. The GI50 (SNB-75 CNS) was 1.72 µM, the TGI (SNB-75 CNS) was 4.22 µM and the GI50 (SR leukemia) was 2.85 µM. For the same molecule, the TGI (SR leukemia) was > 100 µM, the GI50 (SW-620 colon) was 2.14 µM and the TGI (SW-620 colon) was 4.84 µM. The GI50 (T-47D breast) was 2.64 µM, the TGI (T-47D breast) was 8.35 µM and the GI50 (TK-10 renal) was 2.27 µM. The TGI (TK-10 renal) was 6.54 µM, the GI50 (U251 CNS) was 2.13 µM and the TGI (U251 CNS) was 4.48 µM. It also gave a GI50 (UACC-257 melanoma) of 3.12 µM, a TGI (UACC-257 melanoma) of 7.61 µM and a GI50 (UACC-62 melanoma) of 1.93 µM. The TGI (UACC-62 melanoma) was 4.28 µM, the GI50 (UO-31 renal) was 1.66 µM and the TGI (UO-31 renal) was 3.18 µM.

From PubChem BioAssay (NCI)
